According to patent publication US12459918B2, “Isoquinolinone derivatives serving as rock protein kinase inhibitors and use thereof” (GUANGZHOU OCUSUN OPHTHALMIC BIOTECHNOLOGY CO., LTD., priority 2019, dated 2025):

Assays:
[1] = test system: New Zealand rabbits with acute ocular hypertension; assay: Intraocular pressure reduction experiment in New Zealand rabbits with acute ocular hypertension, experiment operation 2; type: in vivo; conditions: for Intraocular pressure in the left eye: left eye (solvent, not modeled)
From the text: Experimental Example 3. Intraocular Pressure Reduction Experiment in New Zealand Rabbits with Acute Ocular Hypertension
Acute ocular hypertension of rabbits were induced by anterior chamber injection of a viscoelastic agent and the intraocular pressure reduction action of compound 60 and compound 63 at different concentrations were explored by eye-drop administration.
Male New Zealand rabbits, aged 97-127 days, weighted 2.5-3.4 kg, purchased from PizhouDongfang Breeding Co. Ltd.
50 male New Zealand rabbits were randomly divided into 5 groups according to body weight, with 10 rabbits/per group Animals in 1-5 groups were injected with medical sodium hyaluronate gel in the anterior chamber of right eye in a single dose, 100 μL/eye, to induce ocular hypertension. In 5-15 minutes after modeling, the right eye was respectively dropped with a solvent, K-115 and test samples (compound 63 at different concentrations), the left eye was dropped with a solvent, the volume of the administration was all 50 μL/eye, and intraocular pressure in both eyes of the animals was measured before administration and in 2, 4, 6, 8 and 10 hours after administration, respectively.

[2] = test system: New Zealand rabbits with normal intraocular pressure; assay: Intraocular pressure reduction experiment in New Zealand rabbits with normal intraocular pressure; type: in vivo; conditions: for Intraocular pressure in the left eye: 20 mg/mL group, left eye (saline or solvent); for Intraocular pressure in the right eye: 20 mg/mL in right eye; for Reduction magnitude of intraocular pressure: 20 mg/mL, left minus right eye
From the text: Experimental Example 2. Intraocular Pressure Reduction Experiment in New Zealand Rabbits with Normal Intraocular Pressure
Rabbits with normal intraocular pressure were adopted to screen intraocular pressure reduction actions of the potential compounds by eye-drop administration.
Male New Zealand rabbits, aged 97-127 days, weighted 2.65-3.5 kg, purchased from PizhouDongfang Breeding Co. Ltd.
The male New Zealand rabbits were randomly divided into 8 rabbits/per group using a computer-generated randomization method Animals in each group were eye-dropped with different test samples in the right eye, and normal saline or solvent in the left eye, and the volume of the administration was both 50 μL/eye. The intraocular pressure of the animals was measured before administration and in 1, 2, 4, 6, 8 and 10 hours after the administration, respectively.

## Cc1ccc(C(=O)OCn2cc(C)c3c(S(=O)(=O)N4CC[C@H](N)C4)cccc3c2=O)c(C)c1 [Compound 63]
[1]; 0.25 mg/mL group, 2 hours after administration
  Intraocular pressure in the left eye: 6.07 mmHg
[1]; 0.25 mg/mL group, 4 hours after administration
  Intraocular pressure in the left eye: 6.60 mmHg
[1]; 0.25 mg/mL group, 6 hours after administration
  Intraocular pressure in the left eye: 9.10 mmHg
[1]; 0.25 mg/mL group, 8 hours after administration
  Intraocular pressure in the left eye: 11.50 mmHg
[1]; 0.25 mg/mL group, 10 hours after administration
  Intraocular pressure in the left eye: 12.43 mmHg
[1]; 0.25 mg/mL group, before administration
  Intraocular pressure in the left eye: 10.53 mmHg
[1]; 0.25 mg/mL in right eye (induced ocular hypertension), 2 hours after administration
  Intraocular pressure in the right eye: 8.47 mmHg
[1]; 0.25 mg/mL in right eye (induced ocular hypertension), 4 hours after administration
  Intraocular pressure in the right eye: 8.60 mmHg
[1]; 0.25 mg/mL in right eye (induced ocular hypertension), 6 hours after administration
  Intraocular pressure in the right eye: 11.20 mmHg
[1]; 0.25 mg/mL in right eye (induced ocular hypertension), 8 hours after administration
  Intraocular pressure in the right eye: 13.37 mmHg
[1]; 0.25 mg/mL in right eye (induced ocular hypertension), 10 hours after administration
  Intraocular pressure in the right eye: 13.10 mmHg
[1]; 0.25 mg/mL in right eye (induced ocular hypertension), before administration
  Intraocular pressure in the right eye: 11.43 mmHg
[1]; 2.0 mg/mL group, 2 hours after administration
  Intraocular pressure in the left eye: 6.60 mmHg
[1]; 2.0 mg/mL group, 4 hours after administration
  Intraocular pressure in the left eye: 7.04 mmHg
[1]; 2.0 mg/mL group, 6 hours after administration
  Intraocular pressure in the left eye: 11.23 mmHg
[1]; 2.0 mg/mL group, 8 hours after administration
  Intraocular pressure in the left eye: 12.84 mmHg
[1]; 2.0 mg/mL group, 10 hours after administration
  Intraocular pressure in the left eye: 13.10 mmHg
[1]; 2.0 mg/mL group, before administration
  Intraocular pressure in the left eye: 11.27 mmHg
[1]; 2.0 mg/mL in right eye (induced ocular hypertension), 2 hours after administration
  Intraocular pressure in the right eye: 8.52 mmHg
[1]; 2.0 mg/mL in right eye (induced ocular hypertension), 4 hours after administration
  Intraocular pressure in the right eye: 11.56 mmHg
[1]; 2.0 mg/mL in right eye (induced ocular hypertension), 6 hours after administration
  Intraocular pressure in the right eye: 13.81 mmHg
[1]; 2.0 mg/mL in right eye (induced ocular hypertension), 8 hours after administration
  Intraocular pressure in the right eye: 12.96 mmHg
[1]; 2.0 mg/mL in right eye (induced ocular hypertension), 10 hours after administration
  Intraocular pressure in the right eye: 11.96 mmHg
[1]; 2.0 mg/mL in right eye (induced ocular hypertension), before administration
  Intraocular pressure in the right eye: 11.23 mmHg
[1]; 8.0 mg/mL group, 2 hours after administration
  Intraocular pressure in the left eye: 5.93 mmHg
[1]; 8.0 mg/mL group, 4 hours after administration
  Intraocular pressure in the left eye: 6.43 mmHg
[1]; 8.0 mg/mL group, 6 hours after administration
  Intraocular pressure in the left eye: 10.10 mmHg
[1]; 8.0 mg/mL group, 8 hours after administration
  Intraocular pressure in the left eye: 11.87 mmHg
[1]; 8.0 mg/mL group, 10 hours after administration
  Intraocular pressure in the left eye: 13.19 mmHg
[1]; 8.0 mg/mL group, before administration
  Intraocular pressure in the left eye: 11.20 mmHg
[1]; 8.0 mg/mL in right eye (induced ocular hypertension), 2 hours after administration
  Intraocular pressure in the right eye: 7.40 mmHg
[1]; 8.0 mg/mL in right eye (induced ocular hypertension), 4 hours after administration
  Intraocular pressure in the right eye: 7.97 mmHg
[1]; 8.0 mg/mL in right eye (induced ocular hypertension), 6 hours after administration
  Intraocular pressure in the right eye: 8.84 mmHg
[1]; 8.0 mg/mL in right eye (induced ocular hypertension), 8 hours after administration
  Intraocular pressure in the right eye: 8.60 mmHg
[1]; 8.0 mg/mL in right eye (induced ocular hypertension), 10 hours after administration
  Intraocular pressure in the right eye: 8.78 mmHg
[1]; 8.0 mg/mL in right eye (induced ocular hypertension), before administration
  Intraocular pressure in the right eye: 11.53 mmHg

## C[C@H]1CNCCCN1S(=O)(=O)c1cccc2cncc(F)c12 [Compound K-115, reference compound]
[1]; 4 mg/mL group, 2 hours after administration
  Intraocular pressure in the left eye: 6.50 mmHg
[1]; 4 mg/mL group, 4 hours after administration
  Intraocular pressure in the left eye: 8.54 mmHg
[1]; 4 mg/mL group, 6 hours after administration
  Intraocular pressure in the left eye: 11.40 mmHg
[1]; 4 mg/mL group, 8 hours after administration
  Intraocular pressure in the left eye: 13.20 mmHg
[1]; 4 mg/mL group, 10 hours after administration
  Intraocular pressure in the left eye: 13.37 mmHg
[1]; 4 mg/mL group, before administration
  Intraocular pressure in the left eye: 11.80 mmHg
[1]; 4 mg/mL in right eye (induced ocular hypertension), 2 hours after administration
  Intraocular pressure in the right eye: 8.20 mmHg
[1]; 4 mg/mL in right eye (induced ocular hypertension), 4 hours after administration
  Intraocular pressure in the right eye: 11.27 mmHg
[1]; 4 mg/mL in right eye (induced ocular hypertension), 6 hours after administration
  Intraocular pressure in the right eye: 15.07 mmHg
[1]; 4 mg/mL in right eye (induced ocular hypertension), 8 hours after administration
  Intraocular pressure in the right eye: 15.57 mmHg
[1]; 4 mg/mL in right eye (induced ocular hypertension), 10 hours after administration
  Intraocular pressure in the right eye: 16.47 mmHg
[1]; 4 mg/mL in right eye (induced ocular hypertension), before administration
  Intraocular pressure in the right eye: 11.77 mmHg
[2]; 1 hour after administration
  Intraocular pressure in the left eye: 11.42 mmHg
  Intraocular pressure in the right eye: 7.54 mmHg
  Reduction magnitude of intraocular pressure: 3.88 mmHg
[2]; 2 hours after administration
  Intraocular pressure in the left eye: 11.67 mmHg
  Intraocular pressure in the right eye: 8.63 mmHg
  Reduction magnitude of intraocular pressure: 3.04 mmHg
[2]; 4 hours after administration
  Intraocular pressure in the left eye: 12.08 mmHg
  Intraocular pressure in the right eye: 10.83 mmHg
  Reduction magnitude of intraocular pressure: 1.25 mmHg
[2]; 6 hours after administration
  Intraocular pressure in the left eye: 12.38 mmHg
  Intraocular pressure in the right eye: 11.83 mmHg
  Reduction magnitude of intraocular pressure: 0.55 mmHg
[2]; 8 hours after administration
  Intraocular pressure in the left eye: 12.83 mmHg
  Intraocular pressure in the right eye: 12.63 mmHg
  Reduction magnitude of intraocular pressure: 0.2 mmHg
[2]; 10 hours after administration
  Intraocular pressure in the left eye: 15.25 mmHg
  Intraocular pressure in the right eye: 14.92 mmHg
  Reduction magnitude of intraocular pressure: 0.33 mmHg
[2]; before administration
  Intraocular pressure in the left eye: 12.29 mmHg
  Intraocular pressure in the right eye: 12.92 mmHg
  Reduction magnitude of intraocular pressure: −0.63 mmHg
